Measurements as given in US4738982A, “HMG-CoA reductase inhibitors” (Merck & Co., Inc., priority 1986, dated 1988).

Molecular target: T1, HMG-CoA reductase (Rattus norvegicus, UniProt P51639)
T1 sequence (P51639 1-887): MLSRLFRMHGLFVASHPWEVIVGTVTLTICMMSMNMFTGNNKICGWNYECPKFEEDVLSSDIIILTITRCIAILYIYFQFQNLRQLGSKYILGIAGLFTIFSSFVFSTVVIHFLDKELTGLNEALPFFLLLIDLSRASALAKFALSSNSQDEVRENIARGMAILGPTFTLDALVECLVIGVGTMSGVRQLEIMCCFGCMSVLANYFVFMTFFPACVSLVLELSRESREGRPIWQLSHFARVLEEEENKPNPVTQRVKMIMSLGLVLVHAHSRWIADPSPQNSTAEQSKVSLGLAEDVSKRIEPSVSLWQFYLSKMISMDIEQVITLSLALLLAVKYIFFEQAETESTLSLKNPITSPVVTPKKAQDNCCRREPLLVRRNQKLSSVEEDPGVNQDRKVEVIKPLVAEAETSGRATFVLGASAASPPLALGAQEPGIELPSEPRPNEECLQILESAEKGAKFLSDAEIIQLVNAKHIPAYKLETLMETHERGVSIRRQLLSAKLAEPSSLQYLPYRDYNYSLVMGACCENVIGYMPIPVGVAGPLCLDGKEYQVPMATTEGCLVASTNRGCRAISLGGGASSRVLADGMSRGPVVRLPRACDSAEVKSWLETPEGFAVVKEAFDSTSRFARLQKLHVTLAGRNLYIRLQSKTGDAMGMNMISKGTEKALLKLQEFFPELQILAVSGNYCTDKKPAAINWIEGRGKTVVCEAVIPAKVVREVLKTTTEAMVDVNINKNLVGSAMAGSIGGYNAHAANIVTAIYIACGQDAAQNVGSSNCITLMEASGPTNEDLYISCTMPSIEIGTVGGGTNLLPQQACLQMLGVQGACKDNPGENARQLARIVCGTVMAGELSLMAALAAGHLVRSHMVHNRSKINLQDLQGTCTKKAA
Test: intrinsic HMG-CoA reductase inhibition, in vitro protocol of J. Med. Chem., 1985, 28, page 347
Format: biochemical
Conditions: in vitro protocol described in J. Med. Chem., 1985, 28, page 347
Experimental: The intrinsic HMG-CoA reductase inhibition activity of the claimed compounds is measured in the in vitro protocol described is J. Med. Chem., 1985, 28, page 347.

IC50: 547 nM
SMILES: CC[C@H](C)C(=O)O[C@H]1C[C@@H](C)CC2=CC(O)[C@H](C)C(CC[C@@H](O)C[C@@H](O)CC(=O)O)=C21 (stereo partly shown)
